The text below walks through data of patent US20220265635A1, “TREATMENT OF NEUROLOGICAL DISEASE” (Aclipse One Inc., priority 2018, published 2022).

The test system of the assay is NRF2. As to the kind of experiment: Example 2 in vivo pharmacodynamic study via subcutaneous dosing, cortex: expression of genes upregulated by NRF2 activation. The settings on record: wildtype mouse cortex, 5 mg/kg s.c. once daily 7 days, compared to Gapdh. The method, then:
Wildtype mice (3 per group) were dosed subcutaneously at 0, 0.5, 1.5, 5 and 10 mg/kg (6aS)-6-methyl-5,6,6a,7-tetrahydro-4H-dibenzo[de,g]quinoline-10,11-diol hydrochloride for 7 days once daily. One animal in the 10 mg/kg dosing group was actually dosed 15 mg/kg on Day 1. To prepare the dosing solutions, (6aS)-6-methyl-5,6,6a,7-tetrahydro-4H-dibenzo[de,g]quinoline-10,11-diol was pre-weighed into bijous and stored in foil.

For the compound `CN1CCc2cccc3c2[C@@H]1Cc1ccc(O)c(O)c1-3` [(6aS)-6-methyl-5,6,6a,7-tetrahydro-4H-dibenzo[de,g]quinoline-10,11-diol], for the setting “6 hours post final dose”, the Gclm gene induction is reported as 1.51 fold, the Hmox1 gene induction came out at 2.02 fold, the Nqo1 gene induction is listed as 1.04 fold and the Nrf1 gene induction is on record as 2.39 fold. In addition, the Pgc1a gene induction (6 hours post final dose) was 1.71 fold. Where the note is “24 hours post final dose”, this compound yielded a Gclm gene induction of 1.45 fold, a Hmox1 gene induction of 2.11 fold, a Nqo1 gene induction of 1.32 fold and a Nrf1 gene induction of 1.58 fold. The compound also registered a Pgc1a gene induction (24 hours post final dose) of 1.70 fold.
